Source: patent US20100256214A1, “EPH RECEPTOR LIGANDS AND METHODS OF USE” (Burnham Institute for Medical Research, priority 2009, published 2010)

Columns and labels:
EphB2 = EphB2 tyrosine phosphorylation in COS7 cells; assay type: cell-based; details: COS7 cells stimulated with ephrin-B2 Fc
EphA4 = EphA4 (Mus musculus, UniProt Q03137); experiment: ELISA, EphA4 AP binding to immobilized ephrin Fc fusion proteins; parameters: made in house; conditioned culture medium used
Protocol: FIGS. 3A and 3B. A. Ephrin-A5 AP binding to immobilized EphA receptor Fc fusion proteins and ephrin-B2 AP binding to immobilized EphB receptor Fc fusion proteins were measured in the presence of the indicated concentrations of compounds 1 and 2. […] Error bars indicate standard error from 3 measurements. B. IC50 values for inhibition of EphA4 AP and EphA2 AP binding to the indicated immobilized ephrins by compounds 1 and 2.
(§1) ELISA Assays and K, Determination—Protein A-coated wells (Pierce Biotecnology, Rockford, Ill.) were used to immobilize ephrin Fc fusion proteins (R&D Systems, Minneapolis, Minn.). Compounds at different concentrations were incubated with EphA4 AP (Cheng and Flanagan, (1994) Cell 79(1), 157-168) or EphA2 AP (Koolpe et al. (2002) J Biol Chem 277(49), 46974-46979) for 3 hours. Alternatively, Eph receptor Fc fusion proteins were immobilized on protein A-coated wells and ephrin-A5 AP (Menzel et al. (2001) Developmental Biology 230(1), 74-88) or ephrin-B2 AP (GeneHunter, Nashville, Tenn.) were added with the compounds. The amount of bound AP-fusion protein was quantified using pNPP as the substrate. Alkaline phosphatase activity from wells with Fc only was subtracted as background. […]

EphA2 = EphA2 (Homo sapiens, UniProt P29317); experiment: ELISA, EphA2-ephrin-A5 binding; details: assuming competitive inhibition; read-out: Ki for inhibition of EphA2-ephrin-A5 binding (Cheng-Prusoff)
EphA2, sequence (P29317 25-534 limits assumed, species assumed): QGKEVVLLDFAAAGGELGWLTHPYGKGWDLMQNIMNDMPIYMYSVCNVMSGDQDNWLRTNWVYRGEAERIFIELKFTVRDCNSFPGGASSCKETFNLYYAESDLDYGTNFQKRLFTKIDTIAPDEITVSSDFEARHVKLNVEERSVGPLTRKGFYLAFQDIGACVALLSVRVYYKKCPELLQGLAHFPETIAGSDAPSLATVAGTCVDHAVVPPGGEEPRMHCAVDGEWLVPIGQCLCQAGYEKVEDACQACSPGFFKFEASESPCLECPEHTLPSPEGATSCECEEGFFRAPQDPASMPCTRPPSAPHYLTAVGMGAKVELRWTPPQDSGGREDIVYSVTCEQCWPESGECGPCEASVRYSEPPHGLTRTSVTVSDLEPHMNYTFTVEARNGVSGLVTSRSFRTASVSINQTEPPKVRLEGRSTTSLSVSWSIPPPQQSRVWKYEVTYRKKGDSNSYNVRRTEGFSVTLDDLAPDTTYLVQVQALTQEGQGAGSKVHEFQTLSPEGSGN
Protocol: as §1, with “substrate.” for “substrate. Alkaline phosphatase activity from wells with Fc only was subtracted as background.”
To calculate the inhibition constant (KO values, the binding of ephrin-A5 AP to EphA4 Fc immobilized on protein A-coated wells was measured in the absence and in the presence of the compounds at different concentrations. Each data set was fitted to the Michaelis-Menten equation: B=Bmax [S]/(KD+[S]), where [S] is the concentration of ephrin AP fusion protein and KD is the dissociation constant observed in the absence or in the presence of the compound, using non linear regression and the program GraphPad (Prism). To evaluate whether the inhibition is competitive, noncompetitive or uncompetitive the KD and Bmax values were determined at different compound concentrations. […]

[1] = target: T1, EphA4 ligand-binding domain (Homo sapiens, UniProt P54764, C204A); experiment: Isothermal titration calorimetry with EphA4 ligand-binding domain; details: ITC; for Ka / Kb: 10 mM phosphate buffer pH 6.3, 25° C.
T1 construct: His-tagged fusion partner of modified pET32a (N, cleaved yes); made in house; host or cells: E. coli Rosetta-gami (DE3)
T1 sequence (P54764 29-209 C204A): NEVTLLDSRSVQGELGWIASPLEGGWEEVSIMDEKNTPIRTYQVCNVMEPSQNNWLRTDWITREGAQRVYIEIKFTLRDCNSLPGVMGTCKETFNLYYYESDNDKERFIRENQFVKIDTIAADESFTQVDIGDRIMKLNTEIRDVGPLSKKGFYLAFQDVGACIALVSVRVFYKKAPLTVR
Protocol: The free Cys176 in this extra tail was mutated to Ala by use of the site-directed mutagenesis kit (Stratagene) to avoid the formation of non-native disulfide bridges.
Titrations were conducted in 10 mM phosphate buffer (pH 6.3) at 25° C. […] The powders of the two compounds were weighted and then dissolved in 10 mM phosphate buffer with the final pH values adjusted to 6.3. The EphA4 receptor at a concentration of 70 μM was placed in a 1.8 ml sample cell while the compounds at a concentration of 2 mM were loaded into a 300 μL syringe. The samples were degassed for 15 min to remove bubbles before the titrations were initiated. Control experiments with the same parameter settings were also performed for the two compounds without EphA4, to subtract the effects due to sample dilution. To obtain thermodynamic binding parameters, the titration data after subtracting the values obtained from the control experiments were fit to a single binding site model using the built-in software ORIGIN version 5.0 (Microcal Software Inc.).

HT22 neuronal cells = experiment: MTT cytotoxicity assay; assay type: cell-based, mouse; details: concentrations up to 400 μM for several days
Protocol: FIG. 7. HT22 neuronal cells were grown in the presence of the indicated concentrations of compounds 1 and 2 for 1, 2 and 3 days. Only DMSO was used in the “0 μM” sample, as a control. After addition of MTT, absorbance was measured at 570 nm to determine the levels of viable cells present. The histograms show the absorbance obtained for each condition normalized to the absorbance in the absence of the compounds. Error bars represent standard error from 3 measurements.
MTT Assay—The cytotoxicity of the compounds was measured using the 3-(4,5-dimethylthiazol-2-yl)-2,5-diphenyltetrazolium bromide (MTT) colorimetric assay. Cells were seeded in 96-well plates and treated with compounds or DMSO starting 3, 2 or 1 day before they reached 100% confluency. For the assay, MTT (Sigma-Aldrich, St. Louis, Mo.) was added at a final concentration of […] and incubated with the cells for 3 hours. The resulting formazan crystals were then solubilized by addition of 100% DMSO. The absorbance in each well was measured at 570 nm using an ELISA plate reader. The results were expressed as the ratio of the absorbance of the cells treated with the compounds and left untreated.

EphA4, sequence (Q03137 20-547 limits assumed): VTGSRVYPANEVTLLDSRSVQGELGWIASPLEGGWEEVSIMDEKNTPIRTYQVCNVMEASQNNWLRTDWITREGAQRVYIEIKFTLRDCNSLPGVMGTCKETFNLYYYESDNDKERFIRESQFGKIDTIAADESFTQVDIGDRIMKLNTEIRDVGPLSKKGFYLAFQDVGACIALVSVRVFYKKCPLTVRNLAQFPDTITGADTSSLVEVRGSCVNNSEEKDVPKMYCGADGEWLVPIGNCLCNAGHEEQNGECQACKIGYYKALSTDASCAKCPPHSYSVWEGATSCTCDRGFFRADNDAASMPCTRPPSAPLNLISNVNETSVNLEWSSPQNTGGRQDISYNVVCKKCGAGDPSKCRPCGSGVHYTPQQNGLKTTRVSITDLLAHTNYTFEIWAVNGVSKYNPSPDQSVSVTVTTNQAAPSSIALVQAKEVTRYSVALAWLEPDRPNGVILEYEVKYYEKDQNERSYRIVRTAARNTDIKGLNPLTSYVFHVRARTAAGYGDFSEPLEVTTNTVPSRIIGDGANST

SMILES | phosphorylation of endogenous EphB2 (EphB2) | inhibition of binding of different ephrin ligands to EphA4 (EphA4) | Ki (EphA2) | Kd [1] | Stoichiometry [1] | ΔH, enthalpy change of binding [1] | ΔS [1] | Ka [1] | Kb [1] | toxicity, cell viability by MTT (HT22 neuronal cells)
Cc1ccc(C)n1-c1ccc(C(=O)O)c(O)c1 [compound 1, 4-(2,5-dimethyl-pyrrol-1-yl)-2-hydroxy-benzoic acid] | did not inhibit | inhibited binding of most ephrin ligands to EphA4, except for ephrin-A4 and ephrin-B2 | 11 to 14 µM | 20.4 µM | 1.000 ± 0 | −1,001 cal | 18.11 cal/mol*K | 48930 M⁻¹ | 20.4 µM | did not reveal any toxicity
Cc1ccc(C)n1-c1ccc(O)c(C(=O)O)c1 [compound 2, 5-(2,5 dimethyl-pyrrol-1-yl)-2-hydroxy-benzoic acid] | did not inhibit | inhibited binding of most ephrin ligands to EphA4, except for ephrin-A4 and ephrin-B2 | 10 to 13 µM | 26.4 µM | 1.000 ± 0 | -237 cal | 20.15 cal/mol*K | 37850 M⁻¹ | 26.4 µM | did not reveal any toxicity
